Consider one compound from US5942494A, “Stimulation of gene expression and synthesis of heat shock protein 72/73 (HSP 70)” (The Trustees of Columbia University in the City of New York, priority 1996, dated 1999).

Square brackets hold non-standard residues; d marks the D form. Peptide text beside a SMILES is read from it. Nle = CCCC[C@H](N)C(=O)O

Experiment [1] has as its system Hsp70. The experiment in a line: Pulse-chase turnover of radiolabeled Hsp70 in HepG2 cells. It counts as cell-based, human. How it is done: FIGS. 4A-4B: Effects of ALLN on Hsp70 turnover and synthesis rates in HepG2 cells. Confluent culture dishes were preincubated for 4 hours with serum-free MEM containing either 1.5% BSA alone (Control) or BSA plus 40 μg/ml of ALLN (ALLN). (A) The preincubated cells were radiolabeled with 3H-leucine (150 μCi/ml) in serum-free, leucine-free medium with/without ALLN for 20 min., washed 3 times with medium free of isotope and then chased in serum-free medium containing BSA with/without ALLN for up to 20 hours. At the indicated time points, cells were harvested and lysed. Samples were immediately stored in a -80° C. freezer. Immunoprecipitation of Hsp70 was performed as described in FIG. 1. Data at each time point were presented as means of cpm from duplicate dishes. (B) . […]
FIGS. 8A-8C: Effects of ALLN on Hsp70 synthesis and turnover rates in HepG2 cells. […] Immunoprecipitates were analyzed on SDS-PAGE and fluorography (A) and also aliquoted for scintillation counting (B). […]
(§1) HepG2 cells were preincubated for 4 hours in serum-free MEM and then radiolabeled with ^3 H-Leucine (150 μCi/ml) in a serum-free, leucine-free medium. […] Cell lysates containing equal amounts of trichloroacetic acid (TCA)-insoluble radioactivity were used for immunoprecipitations by incubating with individual monoclonal antibody (1 μg/ml) for 2.5 hours at 4° C. […]

Experiment [2] deals with Hsp90. The experiment in a line: Immunoprecipitation of Hsp90 from radiolabeled HepG2 cells. To be noted: HepG2, ALLN 4 hours. It counts as cell-based, human. The method, then:
FIGS. 7A-7B: Effects of ALLN on the biosynthesis of other members of Hsp family and related proteins. HepG2 cells were pre-treated and radiolabeled with or without ALLN for 4 hours as described in FIG. 1. Cell lysates were used for SDS-PAGE (A), or for immunoprecipitation with anti-Hsp25, -Hsp27, -Hsp60, -Hsp70, -Hsp86, -Hsp90, -Hsp104, -Bip, or -albumin antibodies respectively (1 μg/ml) (B). Because the anti-Hsp25, -Hsp27, -Hsp60 and Hsp90 antibodies are from a rat source, rabbit anti-rat IgG antibody was added after the first incubation, and the incubation was extended for another 1 hour at 4° C. before collection with protein A-Sepharose.Immunoprecipitates were loaded for SDS-PAGE and aliquoted for scintillation counting and plotting. Each value was presented as mean ±S.D. from three individual culture dishes.
as §1

Consider `CCCC[C@@H](C=O)NC(=O)[C@H](CC(C)C)NC(=O)[C@H](CC(C)C)NC(C)=O` [ALLN, N-acetyl-leucyl-leucyl-norleucinal] (Ac-Leu-Leu-[Nle]-aldehyde), for which the “Half life of newly synthesized Hsp70 in the presence of ALLN” value in experiment [1] (ALLN 40 μg/ml, pulse-chase, HepG2) is given as “about 6 hours”. Besides, the “Increase in the half-life of Hsp70” value in experiment [1] (ALLN versus no ALLN) is on record as 3-4 fold. Also, in experiment [2], the “Effect on Hsp90” value is reported as “no effects”.
